Test results from patent publication US20250034592A1, “NEUROPEPTIDE-[…] AND METHODS FOR THE TREATMENT OF EPILEPSY” (CHARITE - UNIVERSIT[…], priority 2016, published 2025).

Tested on: pDyn deficient mice
Assay: Seizure threshold, pentylenetetrazole (PTZ) tail-vein infusion
Assay type: in vivo
Conditions: FIG. 6; for potency in seizure threshold test: compared with Dyn B
Source text: Pentylenetetrazole is an inhibitor of GABAA receptors and induces seizures upon injection into the tail vein. pDyn deficient animals display a reduce seizure threshold compared to wild-type mice. […] From this, we expect an early onset of the effect of gene therapy and a lower number of vectors needed per patient.
The seizure threshold is a measure for the susceptibility to develop seizures. The resistance against seizure-inducing agents or stimuli is used as readout in animals. Infusion of pentylenetetrazole, a GABAA receptor antagonist, into the tail vein of rodents is an accepted method to measure the seizure threshold. […] This can be rescued by kappa opioid receptors agonists.
Seizure threshold was determined by pentylenetetrazole (PTZ) (see FIG. 6) tail-vein infusion on freely moving pDyn deficient mice at a rate of 100 μl/min ([…] PTZ in saline, pH 7.4). […] The seizure threshold dose was calculated from the infused volume in relation to body weight. Dyn B or modified variants thereof were dissolved in DMSO and diluted to the final dosages in saline containing final concentrations of 10% DMSO, 3% Tween 80. 3 μl of peptide-solution were applied 30 min. before tail-vein infusion under mild sevoflurane anaesthesia into the cisterna magna. The following peptides were tested: Dyn B=SEQ ID No. 8, Dyn B G3A=SEQ ID 10 No. 11 wherein Z at position 3 is alanine, Dyn B G3A+Q8A=SEQ ID No. 11 wherein Z at position 3 is alanine and Z at position 8 of SEQ ID No. 11 is alanine, Dyn B Q8A=SEQ ID No. 11 wherein Z at position 8 is alanine.

| Substance | potency in seizure threshold test | seizure threshold (peptide applied into cisterna magna 30 min before) |
| --- | --- | --- |
| Dyn B G3A+Q8A: SEQ ID No. 11 wherein Z at position 3 is alanine and Z at position 8 is alanine (YGAFLRRAFKVVT; VARIANT 3 Any amino acid; VARIANT 8 Any amino acid; listed as Homo sapiens) | higher potency |  |
| Dyn B G3A: SEQ ID No. 11 (YGZFLRRZFKVVT) wherein Z at position 3 is alanine (YGAFLRRXFKVVT; VARIANT 3 Any amino acid; VARIANT 8 Any amino acid; listed as Homo sapiens) | higher potency |  |
| Dynorphin B [Dyn B, reference compound] |  | rescued |
